Test results: patent US11247965B2 (VenatoRx Pharmaceuticals, Inc., priority 2017, dated 2022)

Columns and labels:
[1] = In vitro cytotoxicity, MTT cell viability assay in HepG2 cells; type: cell-based; settings: human, Cytotoxicity CC50
In short: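 HepG2 cells incubated 7 days at 37 °C, 5% CO2 with compounds from 30 μM to 1.0 nM (8 half-log dilutions). Viability read as MTT formazan absorbance at 492 nm, normalised to vehicle controls; CC50 from 4-parameter non-linear regression.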

[2] = test system: HBV replication in HepAD38 cells; test: Anti-HBV activity in HepAD38 cells, extracellular HBV DNA by QPCR; type: cell-based, HBV (genotype D, serotype ayw); settings: Hepatitis B virus, HePAD38, 168 h, read-out: Anti-HBV EC50, HepAD38 cells, extracellular HBV DNA by QPCR, 7 days of incubation
In short: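 Seven-day compound exposure (30 μM down to 10 nM, half-log steps) after tetracycline withdrawal induced HBV replication in HepAD38 cells. Extracellular viral DNA measured by QPCR (copies/mL via standard curve), normalised to DMSO wells; EC50 from 4-parameter non-linear regression.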

Structure (SMILES)	CC50 at 7 days [1]	EC50 [2]
Cc1cc(NC(=O)c2ccn(C)c2C(F)(F)C(=O)NC(C)(C)CO)ccc1F [Example 105, 2-(1,1-difluoro-2-((1-hydroxy-2-methylpropan-2-yl)amino)-2-oxoethyl)-N-(4-fluoro-3-methylphenyl)-1-methyl-1H-pyrrole-3-carboxamide]	> 30 µM	5 to 30 µM
Cc1cc(NC(=O)c2cc(C(F)(F)C(=O)NC(C)(C)C)n(C)c2C)ccc1F [Example 106, 5-(2-(tert-butylamino)-1,1-difluoro-2-oxoethyl)-N-(4-fluoro-3-methylphenyl)-1,2-dimethyl-1H-pyrrole-3-carboxamide]	5 to 30 µM	< 5 µM
Cc1cc(NC(=O)c2c(C)c(C(F)(F)C(=O)NC(C)(C)C)n(C)c2C)ccc1F [Example 107, 5-(2-(tert-butylamino)-1,1-difluoro-2-oxoethyl)-N-(4-fluoro-3-methylphenyl)-1,2,4-trimethyl-1H-pyrrole-3-carboxamide]	> 30 µM	< 5 µM
CC[C@H](C)NC(=O)C(F)(F)c1c(C(=O)Nc2ccc(F)c(C)c2)ccn1C [Example 108, (S)-2-(2-(sec-butylamino)-1,1-difluoro-2-oxoethyl)-N-(4-fluoro-3-methylphenyl)-1-methyl-1H-pyrrole-3-carboxamide]	> 30 µM	< 5 µM
CC[C@@H](C)NC(=O)C(F)(F)c1cc(C(=O)Nc2ccc(F)c(C)c2)cn1C [Example 109, (R)-5-(2-(sec-butylamino)-1,1-difluoro-2-oxoethyl)-N-(4-fluoro-3-methylphenyl)-1-methyl-1H-pyrrole-3-carboxamide]	> 30 µM	< 5 µM
CC[C@@H](C)NC(=O)C(F)(F)c1c(C(=O)Nc2ccc(F)c(C)c2)ccn1C [Example 110, (R)-2-(2-(sec-butylamino)-1,1-difluoro-2-oxoethyl)-N-(4-fluoro-3-methylphenyl)-1-methyl-1H-pyrrole-3-carboxamide]	> 30 µM	> 30 µM
Cc1cc(NC(=O)c2cc(C(F)(F)C(=O)NC(C)C(F)(F)F)n(C)c2)ccc1F (centres unmarked) [Example 111, 5-(1,1-difluoro-2-oxo-2-((1,1,1-trifluoropropan-2-yl)amino)ethyl)-N-(4-fluoro-3-methylphenyl)-1-methyl-1H-pyrrole-3-carboxamide]	> 30 µM	< 5 µM
Cc1cc(NC(=O)c2ccn(C)c2C(F)(F)C(=O)NC(C)C(F)(F)F)ccc1F (centres unmarked) [Example 112, 2-(1,1-difluoro-2-oxo-2-((1,1,1-trifluoropropan-2-yl)amino)ethyl)-N-(4-fluoro-3-methylphenyl)-1-methyl-1H-pyrrole-3-carboxamide]	> 30 µM	> 30 µM
Cc1cc(NC(=O)c2cn(C)c(C(F)(F)C(=O)NC(C)(C)C)c2C)ccc1F [Example 113, 5-(2-(tert-butylamino)-1,1-difluoro-2-oxoethyl)-N-(4-fluoro-3-methylphenyl)-1,4-dimethyl-1H-pyrrole-3-carboxamide]	> 30 µM	< 5 µM
Cc1cc(NC(=O)c2c(C)cn(C)c2C(F)(F)C(=O)NC(C)(C)C)ccc1F [Example 114, 2-(2-(tert-butylamino)-1,1-difluoro-2-oxoethyl)-N-(4-fluoro-3-methylphenyl)-1,4-dimethyl-1H-pyrrole-3-carboxamide]	> 30 µM	> 30 µM
C=Cc1ccc(C(=O)Nc2ccc(F)c(C)c2)cc1C(F)(F)C(=O)N1CCC(O)CC1 [Example 115, 3-(1,1-difluoro-2-(4-hydroxypiperidin-1-yl)-2-oxoethyl)-N-(4-fluoro-3-methylphenyl)-4-vinylbenzamide]	> 30 µM	< 5 µM
Cc1cc(NC(=O)c2ccc([C@@H](O)CO)c(C(F)(F)C(=O)N3CCC(O)CC3)c2)ccc1F [Example 116, (R)-3-(1,1-difluoro-2-(4-hydroxypiperidin-1-yl)-2-oxoethyl)-4-(1,2-dihydroxyethyl)-N-(4-fluoro-3-methylphenyl)benzamide]	> 30 µM	> 30 µM
Cc1cc(NC(=O)c2ccc([C@@H](O)CO)c(C(F)(F)C(=O)NC(C)(C)C)c2)ccc1F [Example 117, (R)-3-(2-(tert-butylamino)-1,1-difluoro-2-oxoethyl)-4-(1,2-dihydroxyethyl)-N-(4-fluoro-3-methylphenyl)benzamide]	> 30 µM	> 30 µM
Cc1cc(NC(=O)c2ccc(F)c(C(F)(F)C(=O)N3CCC(C(=O)O)CC3)c2)ccc1F [Example 118, 1-(2,2-difluoro-2-(2-fluoro-5-((4-fluoro-3-methylphenyl)carbamoyl)phenyl)acetyl)piperidine-4-carboxylic acid]	> 30 µM	< 5 µM
CC(C)(C)NC(=O)C(O)c1cc(C(=O)Nc2ccc(F)c(F)c2)ccc1F (centres unmarked) [Example 119, 3-(2-(tert-butylamino)-1-hydroxy-2-oxoethyl)-N-(3,4-difluorophenyl)-4-fluorobenzamide]	5 to 30 µM	5 to 30 µM
O=C(Nc1ccc(F)c(F)c1)c1ccc(F)c(C(O)C(=O)N2CCC(O)CC2)c1 (centres unmarked) [Example 120, N-(3,4-difluorophenyl)-4-fluoro-3-(1-hydroxy-2-(4-hydroxypiperidin-1-yl)-2-oxoethyl)benzamide]	> 30 µM	> 30 µM
Cc1cc(NC(=O)c2cc(C(O)C(=O)NC(C)(C)C)cn2C)ccc1F (centres unmarked) [Example 121, 4-(2-(tert-butylamino)-1-hydroxy-2-oxoethyl)-N-(4-fluoro-3-methylphenyl)-1-methyl-1H-pyrrole-2-carboxamide]	> 30 µM	< 5 µM
Cc1cc(NC(=O)c2cc(C(F)(F)C(=O)N3CCC(B(O)O)CC3)n(C)c2)ccc1F [Example 122, (1-(2,2-difluoro-2-(4-((4-fluoro-3-methylphenyl)carbamoyl)-1-methyl-1H-pyrrol-2-yl)acetyl)piperidin-4-yl)boronic acid]	> 30 µM	5 to 30 µM
Cc1cc(NC(=O)c2cc(C(C)(O)C(=O)NC(C)(C)C)cn2C)ccc1F (centres unmarked) [Example 123, 4-(1-(tert-butylamino)-2-hydroxy-1-oxopropan-2-yl)-N-(4-fluoro-3-methylphenyl)-1-methyl-1H-pyrrole-2-carboxamide]	5 to 30 µM	5 to 30 µM
Cc1cc(NC(=O)c2cc(C(O)(C(=O)NC(C)(C)C)C(C)C)cn2C)ccc1F (centres unmarked) [Example 124, 4-(1-(tert-butylamino)-2-hydroxy-3-methyl-1-oxobutan-2-yl)-N-(4-fluoro-3-methylphenyl)-1-methyl-1H-pyrrole-2-carboxamide]	> 30 µM	5 to 30 µM
Cc1cc(NC(=O)c2cc(C(F)(F)C(=O)N[C@H]3CC[C@@H](O)CC3)n(C)c2)ccc1F [Example 125, 5-(1,1-difluoro-2-(((1s,4s)-4-hydroxycyclohexyl)amino)-2-oxoethyl)-N-(4-fluoro-3-methylphenyl)-1-methyl-1H-pyrrole-3-carboxamide]	> 30 µM	< 5 µM
Cc1cc(NC(=O)c2ccn(C)c2C(F)(F)C(=O)NC2CCC(O)CC2)ccc1F (centres unmarked) [Example 126, 2-(1,1-difluoro-2-(((1s,4s)-4-hydroxycyclohexyl)amino)-2-oxoethyl)-N-(4-fluoro-3-methylphenyl)-1-methyl-1H-pyrrole-3-carboxamide]	> 30 µM	5 to 30 µM
Cc1cc(NC(=O)c2cc(C(F)(F)C(=O)N[C@@H]3CCCC[C@H]3O)n(C)c2)ccc1F [Example 127, 5-(1,1-difluoro-2-(((1R,2R)-2-hydroxycyclohexyl)amino)-2-oxoethyl)-N-(4-fluoro-3-methylphenyl)-1-methyl-1H-pyrrole-3-carboxamide]	> 30 µM	< 5 µM
Cc1cc(NC(=O)c2ccn(C)c2C(F)(F)C(=O)N[C@@H]2CCCC[C@H]2O)ccc1F [Example 128, 2-(1,1-difluoro-2-(((1R,2R)-2-hydroxycyclohexyl)amino)-2-oxoethyl)-N-(4-fluoro-3-methylphenyl)-1-methyl-1H-pyrrole-3-carboxamide]	> 30 µM	5 to 30 µM
Cc1cc(NC(=O)c2cn(C)c(C(F)(F)C(=O)NC(C)(C)CO)c2C)ccc1F [Example 129, 5-(1,1-difluoro-2-((1-hydroxy-2-methylpropan-2-yl)amino)-2-oxoethyl)-N-(4-fluoro-3-methylphenyl)-1,4-dimethyl-1H-pyrrole-3-carboxamide]	> 30 µM	< 5 µM
Cc1cc(NC(=O)c2c(C)c(C(O)(C(=O)NC(C)(C)C)C(F)(F)F)c(C)n2C)ccc1F (centres unmarked) [Example 131, 4-(3-(tert-butylamino)-1,1,1-trifluoro-2-hydroxy-3-oxopropan-2-yl)-N-(4-fluoro-3-methylphenyl)-1,3,5-trimethyl-1H-pyrrole-2-carboxamide]	5 to 30 µM	5 to 30 µM
COCC(C)(C)NC(=O)C(F)(F)c1cc(C(=O)Nc2ccc(F)c(C)c2)cn1C [Example 132, 5-(1,1-difluoro-2-((1-methoxy-2-methylpropan-2-yl)amino)-2-oxoethyl)-N-(4-fluoro-3-methylphenyl)-1-methyl-1H-pyrrole-3-carboxamide]	> 30 µM	< 5 µM
Cc1cc(NC(=O)c2cc(C(F)(F)C(=O)NC3(C)CCCOC3)n(C)c2)ccc1F (centres unmarked) [Example 133, 5-(1,1-difluoro-2-((3-methyltetrahydro-2H-pyran-3-yl)amino)-2-oxoethyl)-N-(4-fluoro-3-methylphenyl)-1-methyl-1H-pyrrole-3-carboxamide]	> 30 µM	< 5 µM
